# “Also recorded” adds a separate entry of the source.
# Legend:
# [1] = tested on: person with knee osteoarthritis and subchondral bone marrow edema lesions; test: Example 2: case report of knee osteoarthritis with subchondral BML; type: in vivo, human
# Experimental: The patient was administered a course of Pentosan Polysulphate Sodium (PPS) intramuscularly twice weekly for 3 weeks. […] These MRI interpretations corroborate improved clinical outcome measures ensuing therapeutic intervention with PPS.
# A person with a history of arthroscopic partial medial meniscectomy presented with pain of the left knee and was on a waiting list for total knee replacement. […] The BML in the medial femoral condyle measured 11×7×12 mm (CC×transverse×AP) and the medial tibial plateau BML measured 8×8×8 mm (CC×transverse×AP). […] Following patient consent, the pain assessment score was determined by the Numerical Rating Scale (NRS) and functional capacity assessments included the Lysholm knee score. At pre-treatment, the NRS pain score was severe with a score of 8 out of 10 (range 0-10) and the Lysholm Knee score was 37 out of 100 reflecting poor knee function indicated by problems in stair climbing and limping.
# Since PPS is a weak anticoagulant with 1/15 the activity of heparin, the patient was monitored for safety by assessments of complete blood count, APTT, prothrombin time, liver function tests, renal function tests and serum calcium prior to commencement of treatment and periodically during treatment with Pentosan Polysulphate Sodium. The clinical status of the patient was checked regularly throughout the course of the treatment and follow up period.
# After evaluation, the patient was considered suitable for treatment with Pentosan Polysulphate Sodium (PPS) under the SAS. The patient was administered 2 mg/kg of PPS twice weekly with a minimum of three and a maximum of four days between dosages. Six intramuscular injections were administered into the gluteus maximus muscle over a three-week period (2 injections per week). Three follow-up appointments were made at 10, 24 and 38 days post-completion of injection regimen.
# [2] = fraction of the activity of heparin; cited from earlier work
# [3] = tested on: patient with chronic lower back pain with a Modic Type 1 pattern on MRI; test: Example 3: case report for chronic low back pain with Modic Type 1 pattern; type: in vivo, human; settings: patient one
# Experimental: Patient one, a person with chronic lower back pain with a Modic Type 1 pattern on MRI scan of the L3/L4 and L4 L5 region of the spine presented in the clinics with unresolved persistent pain despite current standard of care treatment with Mobic, an NSAID.
# The baseline NRS pain score prior to treatment with PPS was a high score of 7. Patient was administered by subcutaneous injection a dose of 150 mg fixed dose of PPS twice weekly for 4 weeks (ie a total of 8 injections). […] During the course of the treatment the patient had abstained from any other therapeutic intervention.
# [4] = tested on: Knee OA patients with Bone Marrow Edema Lesions; test: Example 1: PPS in knee OA patients with Bone Marrow Edema Lesions on MRI (TGA Special Access Scheme); type: in vivo, human; settings: standard four week course of PPS
# Modic Changes = test: Further work: Modic Changes assessed by MRI after SC PPS twice-weekly for 6 weeks; type: in vivo; settings: 2 mg/kg PPS or fixed dose of 150 mg, slow SC injection twice-weekly for 6 weeks
# [5] = tested on: Knee OA patients with Bone Marrow Edema Lesions; test: Example 1: PPS in knee OA patients with Bone Marrow Edema Lesions on MRI (TGA Special Access Scheme); type: in vivo, human; parameters: key to After PPS/BMEL: Severe: (>20 mm); Moderate: (5 mm to 20 mm); Minimal: (<5 mm); Absent; settings: for After PPS/BMEL / After PPS/NRS Pain / After PPS/Lysholm Knee Score: 2 mg/kg IM 2x weekly for 3 weeks; for After PPS/NRS Pain / After PPS/Lysholm Knee Score: scored 2 to 4 weeks after last injection; for After PPS/NRS Pain: scale 0-10; for After PPS/Lysholm Knee Score: scale 0-100
# Description: Example 1 is a study of the safety, tolerability and results of patients treated with PPS with Bone Marrow Edema Lesions of the knee and suffering from osteoarthritis under the TGA Special Access Scheme (B). (Approval to use PPS as treatment for the patient was acquired from Department of Health-Therapeutic Goods Administration, Australian Government under the Special Access Scheme (SAS) since the injectable form of PPS was not a registered product in Australia.)
# Patients in the study had the following characteristics: • High pain scores • Poor joint function scores • MRI evidence of Bone Marrow Edema Lesions and joint effusions • Kellgren-Lawrence (3-4) OA subjects currently on waiting list for Total Knee Replacement • Failed standard of care including intraarticular injections of corticosteroids • The protocol featured the following: • Treatment: 2× weekly intramuscular injections of 2 mg/kg for 3 weeks (total of 6 injections) • All patients abstained from NSAIDs during PPS treatment • The treatment outcomes of pain and function were scored before and after PPS treatment 2 to 4 weeks after the last PPS injection • All patients had baseline subchondral BML.
# Numerical Rating Scale (NRS) is an 11-point scale (0-10). A state of no pain is 0 and the worst pain imaginable is 10.
# Lysholm Knee Score is a total score of 0-100 is calculated based on the results from the eight functional components of the Lysholm knee score scale: Limp (5 points), Support (5 points), Locking (15 points), Instability (25 points), Pain (25 points), Swelling (10 points), Stair climbing (10 points), and Squatting (5 points). The total score is assigned to rating categories as follows: 95-100 indicates excellent, 84-94 indicates good, 65-83 indicates fair and <65 indicates poor function.
# BMEL = test: Further work: BMEL assessed by MRI after SC PPS twice-weekly for 6 weeks; type: in vivo; settings: 2 mg/kg PPS or fixed dose of 150 mg, slow SC injection twice-weekly for 6 weeks
substance,measurement,setting,value
Pentosan Polysulphate Sodium [PPS],bone marrow oedema lesions at the medial femoral condyle and medial tibial plateau on MRI,"[1]; 2 mg/kg IM twice weekly for 3 weeks (6 injections), MRI five weeks after first injection, pre-treatment BML 11x7x12 mm and 8x8x8 mm",resolution of medial compartment bone oedema; also recorded: complete resolution; also recorded: complete reduction
same,knee (joint) effusion on MRI,"[1]; 2 mg/kg IM twice weekly for 3 weeks, axial imaging at level of suprapatellar pouch, five weeks after first injection",reduction in size of knee effusion; also recorded: complete resolution; also recorded: marked reduction; also recorded: reduction in the size
same,adverse events,"[1]; 2 mg/kg IM twice weekly for 3 weeks, during treatment and follow up period",did not present with any drug-related or nondrug-related adverse response; also recorded: did not report any adverse effects; also recorded: no post-treatment adverse events
same,improvement of the Lysholm Knee score,"[1]; 2 mg/kg IM twice weekly for 3 weeks, four weeks after the last injection, 37 to 65",43%
same,Lysholm Knee score post-treatment,"[1]; 2 mg/kg IM twice weekly for 3 weeks, four weeks after the last injection, scale 0-100, pre-treatment score 37",65
same,NRS pain score post-treatment,"[1]; 2 mg/kg IM twice weekly for 3 weeks, scale 0-10, pre-treatment score 8",0
same,anticoagulant activity relative to heparin,[2],1/15
same,pain soon after the 4th injection,[3]; 150 mg fixed dose SC twice weekly,improvement in pain
same,adverse events,"[3]; 150 mg fixed dose SC twice weekly for 4 weeks, during and after treatment",No adverse events
same,BMEL on MRI,[4],clearly visible BMEL reduction
same,pain and mobility scores,[4],improved
same,Modic Changes as assessed by magnetic resonance imaging,Modic Changes,consistent resolution
same,After PPS/BMEL,"[5]; patient four, before PPS: Moderate (5 mm to 20 mm)",Minimal ((<5 mm))
same,After PPS/NRS Pain,"[5]; patient four, before PPS: 4",1
same,After PPS/Lysholm Knee Score,"[5]; patient four, before PPS: 73",90
same,After PPS/BMEL,"[5]; patient three, before PPS: Severe (>20 mm)",Moderate ((5 mm to 20 mm))
same,After PPS/NRS Pain,"[5]; patient three, before PPS: 4",0
same,After PPS/Lysholm Knee Score,"[5]; patient three, before PPS: 54",73
same,After PPS/BMEL,"[5]; patient two, before PPS: Moderate (5 mm to 20 mm)",Absent
same,After PPS/NRS Pain,"[5]; patient two, before PPS: 8",0
same,After PPS/Lysholm Knee Score,"[5]; patient two, before PPS: 37",70
same,adverse events,"[5]; patients with BMEL and osteoarthritis under TGA SAS(B), 2 mg/kg IM 2x weekly",no adverse events were reported
same,BMEL volume as assessed by magnetic resonance imaging,BMEL,consistent BMEL volume reduction
